Several values for one entry are separate records, joined by “and”; a condition that tells them apart may be missing. Equal entries are not always repeated.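 In this assay, cells in 96-well plates receive the compound at five concentrations for 48 hours. Endpoints are linearly interpolated between the surrounding concentrations. Here, GI50 denotes the concentration required for 50% inhibition of growth. TGI is the concentration that stops growth completely.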
Columns and labels:
Assay in all cases: DTP human tumour cell line panel, 48 h
A498 renal = tested on: A498 renal
ACHN renal = tested on: ACHN renal
CCRF-CEM leukemia = tested on: CCRF-CEM leukemia
HCT-116 colon = tested on: HCT-116 colon
IGROV1 ovarian = tested on: IGROV1 ovarian
K-562 leukemia = tested on: K-562 leukemia
NCI-H522 lung = tested on: NCI-H522 lung
PC-3 prostate = tested on: PC-3 prostate
RXF 393 renal = tested on: RXF 393 renal
UACC-257 melanoma = tested on: UACC-257 melanoma

Row | Structure (SMILES) | GI50 (A498 renal) | TGI (A498 renal) | GI50 (ACHN renal) | TGI (ACHN renal) | GI50 (CCRF-CEM leukemia) [µM] | TGI (CCRF-CEM leukemia) | GI50 (HCT-116 colon) | TGI (HCT-116 colon) | GI50 (IGROV1 ovarian) | TGI (IGROV1 ovarian) | GI50 (K-562 leukemia) [µM] | TGI (K-562 leukemia) | GI50 (NCI-H522 lung) [µM] | TGI (NCI-H522 lung) | GI50 (PC-3 prostate) [µM] | TGI (PC-3 prostate) | GI50 (RXF 393 renal) [µM] | TGI (RXF 393 renal) | GI50 (UACC-257 melanoma) [µM] | TGI (UACC-257 melanoma)
1 | O=C1NC(=O)N(S(=O)(=O)c2cc(C(=O)Nc3ccc(Cl)cc3)c(Cl)cc2S)S(=O)(=O)N1 | 15.5 µM | 30.1 µM | 21.6 µM | 43.7 µM | 8.53 | 26.9 µM | 19.4 µM | 35.4 µM | 24.1 µM | 51.6 µM | 12.3 | 34.1 µM | 21.1 | 50.6 µM | 17.8 | 52 µM | 0.67 | 18.2 µM | 17.5 | 37.1 µM
2 | O=C1C[C@@H]2OCC=C3C[N+]4([O-])CC[C@]56c7ccccc7N1[C@H]5[C@H]2[C@H]3C[C@@H]64 (stereo partly drawn) | > 100 µM | > 100 µM | > 100 µM | > 100 µM | > 100 | > 100 µM | > 100 µM | > 100 µM | > 100 µM | > 100 µM | > 100 | > 100 µM | > 100 | > 100 µM | > 100 | > 100 µM | > 100 | > 100 µM | > 100 | > 100 µM
3 | CC1(C)CC2=NO[Se]3=C2C(=NO3)C1 |  | 10.4 µM |  | 3.61 µM |  | 30.4 µM |  | 10.4 µM |  | 6.43 µM |  | 12.4 µM |  | 5.46 µM |  | 3.24 µM |  | 9.18 µM |  | 5.64 µM
4 | N=C(N)SCc1ccc(Cl)c2ccccc12 (tested in a mixture with another compound) |  | 22.5 µM and 23.2 µM |  | 25.1 µM and 25.8 µM |  | 26.4 µM and 17.4 µM |  | 24.5 µM and 28.2 µM |  | 29 µM and 30.8 µM |  | 19.4 µM and 10.1 µM |  | 18.7 µM and 23.9 µM |  | 24.3 µM and 25.3 µM |  | 20.5 µM and 22.7 µM |  | 13.8 µM and 12.9 µM
5 | Oc1c(Br)cc(Cl)cc1C(c1cc(Cl)cc(Br)c1O)C(Cl)(Cl)Cl | 1.69 µM | 8.24 µM | 3.06 µM | 9.81 µM | 0.996 | 9.71 µM | 2.12 µM | 7.91 µM | 3.95 µM | 16.7 µM | 0.832 | 16.8 µM | 1.86 | 6.07 µM | 2.11 | 8.21 µM | 2.73 | 8.77 µM | 2.33 | 6.57 µM
6 | OCc1ccc(N2CCc3ccc(F)cc3C2)cc1Cl | 0.0173 µM | 0.0751 µM | 10.4 µM | 23 µM | 2.6 | 9.97 µM | 0.0267 µM | 11.1 µM | 0.0202 µM | 0.124 µM | 0.159 | 19.6 µM | 12.6 | 26.2 µM | 12.7 | 27.4 µM | 0.373 | 12.1 µM | 0.0279 | 0.101 µM
7 | N#CC1=C(N)Oc2c(ccc3ccccc23)C1c1cc2ccccc2n2nnnc12 (stereo not drawn) | 0.783 µM | > 100 µM | 1.71 µM | > 100 µM | 0.739 | > 100 µM | 0.685 µM | > 100 µM | 0.82 µM | > 100 µM | 0.365 | > 100 µM | 0.407 | 2.9 µM | 0.546 | > 100 µM | 1.4 | 6.59 µM | 9.09 | > 100 µM
8 | O=C1NC(=NCc2cccs2)O/C1=C\c1ccc2ncccc2c1 | 0.606 µM | 4.81 µM | 4.07 µM | 21.5 µM | 4.8 | 16.7 µM | 4.92 µM | > 25 µM | 3.51 µM | 10.5 µM | 7.31 | > 25 µM | 2 | 8.34 µM | 6.33 | > 25 µM | 4.63 | 13.9 µM | 3.74 | 12.4 µM
9 | O=C1NC(=O)C2C3C=CC(C12)C1C2C(=O)NC(=O)C2C31 (stereo not drawn) | 467 µM | 250 µM and > 1000 µM | 766 µM | > 1000 µM | 237 | 250 µM and > 1000 µM | > 39.9 µM and 308 µM | > 55.9 µM and 250 µM and > 1000 µM | > 770 µM | 248 µM and > 1000 µM | 137 | 250 µM and > 1000 µM | 261 | 235 µM and 864 µM | 525 | 250 µM and > 1000 µM | > 1000 | 250 µM and > 1000 µM | > 1000 | 250 µM and > 1000 µM
10 | COc1nc(N)nc2nc[nH]c12 | 306 µM and 335 µM | 500 µM and 800 µM and 691 µM | 454 µM and 381 µM | 500 µM and 800 µM and > 1000 µM | 563 | 407 µM and 800 µM and > 920 µM | 747 µM and 670 µM | 500 µM and 800 µM and > 1000 µM | 460 µM and 529 µM | 454 µM and 800 µM and > 1000 µM | > 800 | > 1000 µM | 554 | 500 µM and 800 µM and > 917 µM |  | 500 µM and > 1000 µM |  | 489 µM and 800 µM and 914 µM | > 1000 | 500 µM and > 800 µM and > 1000 µM
11 | CN(C)c1ccc(/C=N/N=C(\C#N)[S][Sn]([Cl])([c]2ccccc2)[c]2ccccc2)cc1 | 1.96 µM | 3.71 µM | 1.72 µM | 3.2 µM | 0.281 | 1.05 µM | 1.32 µM | 2.63 µM | 1.99 µM | 4.63 µM | 0.339 | 3.55 µM | 0.127 | 0.369 µM | 2.94 | 8.38 µM | 1.38 | 2.72 µM | 1.52 | 2.95 µM
12 | O=c1c(Oc2ccc(F)cc2F)cc2cnc(NC3CCOCC3)nc2n1C1CC1 | 2.72 µM | > 25 µM | > 25 µM | > 25 µM | > 25 | > 25 µM | > 25 µM | > 25 µM | > 25 µM | > 25 µM | > 25 | > 25 µM | > 25 | > 25 µM | > 25 | > 25 µM | > 17.1 | > 25 µM | > 25 | > 25 µM

Reference: PubChem BioAssay (NCI)
